The text below walks through data of US20260258064A1 (SIRONAX LTD., priority 2023, published 2026).

Where only a bound is given, the exact number is not on record here.

This experiment has as its target T1, SARM1 (50-724) (Homo sapiens, UniProt Q6SZW1).
T1 construct: Purified SARM1 (50-724) with a final concentration of 2 nM was pre-incubated with a test compound
T1 sequence (Q6SZW1 50-724): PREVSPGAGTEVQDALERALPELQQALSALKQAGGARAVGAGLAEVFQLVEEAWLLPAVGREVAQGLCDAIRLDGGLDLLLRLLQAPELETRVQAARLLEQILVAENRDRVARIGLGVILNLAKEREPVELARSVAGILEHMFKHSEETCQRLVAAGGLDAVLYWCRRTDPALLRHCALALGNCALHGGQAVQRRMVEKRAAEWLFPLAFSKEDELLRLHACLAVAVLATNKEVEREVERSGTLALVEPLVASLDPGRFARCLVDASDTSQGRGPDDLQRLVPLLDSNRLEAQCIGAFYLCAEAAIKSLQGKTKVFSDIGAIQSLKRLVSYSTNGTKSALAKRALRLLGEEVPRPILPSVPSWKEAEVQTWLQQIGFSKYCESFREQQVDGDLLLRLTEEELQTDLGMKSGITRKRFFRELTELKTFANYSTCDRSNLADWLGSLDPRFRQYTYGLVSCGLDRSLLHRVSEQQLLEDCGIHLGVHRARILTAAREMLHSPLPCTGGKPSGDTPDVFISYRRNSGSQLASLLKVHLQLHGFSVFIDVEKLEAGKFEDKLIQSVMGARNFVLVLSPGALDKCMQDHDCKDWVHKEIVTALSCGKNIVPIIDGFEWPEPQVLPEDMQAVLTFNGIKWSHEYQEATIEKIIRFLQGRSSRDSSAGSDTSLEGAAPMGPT
Put plainly: SARM1 (50-724) enzymatic assay (LC-MS/MS). The class given is biochemical. Particulars: Purified SARM1 (50-724) 2 nM, NMN as activator, NAD+ as substrate, 1 h at room temperature, read-out: IC50 (SARM1 inhibitory activity). Put shortly: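 Reaction buffer was Dulbecco's PBS. Compound and 2 nM human SARM1 (50-724) were pre-incubated 15 min at room temperature, then […] NAD^+ and 200 µM NMN activator were added for 1 h at room temperature. Acetonitrile (70%) stop, LC-MS/MS read-out, IC50 values.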
One may read the IC50 as the concentration at which inhibition is half-maximal. With `C=C(F)Cc1cc(F)c2[nH]c(-c3nncn3-c3cnccc3C(F)(F)F)nc2c1` [Compound 316, 7-fluoro-5-(2-fluoroallyl)-2-(4-(4-(trifluoromethyl)pyridin-3-yl)-4H-1,2,4-triazol-3-yl)-1H-benzo[d]imidazole], the IC50 is ≤ 100 nM.
Regarding `Fc1cc(C(F)(F)F)cc2nc(-c3nnc(CC(F)F)n3-c3cnccc3C(F)(F)F)[nH]c12` [Compound 317, 2-(5-(2,2-difluoroethyl)-4-(4-(trifluoromethyl)pyridin-3-yl)-4H-1,2,4-triazol-3-yl)-7-fluoro-5-(trifluoromethyl)-1H-benzo[d]imidazole], the IC50 is ≤ 100 nM.
For `CN(CC(F)F)c1cc(F)c2[nH]c(-c3nncn3-c3cnccc3C(F)(F)F)nc2c1` [Compound 318, N-(2,2-difluoroethyl)-7-fluoro-N-methyl-2-(4-(4-(trifluoromethyl)pyridin-3-yl)-4H-1,2,4-triazol-3-yl)-1H-benzo[d]imidazol-5-amine], the IC50 is ≤ 100 nM.
Regarding `FC(F)(F)c1ccc2[nH]c(N3CCSCC3c3ccccc3)nc2c1` (stereo not drawn) [Compound 319, 3-phenyl-4-(5-(trifluoromethyl)-1H-benzo[d]imidazol-2-yl)thiomorpholine], the IC50 is > 1000 nM.
Regarding `N#CC1CC1c1ccc2[nH]c(-c3nncn3-c3cnccc3C(F)(F)F)nc2c1F` (stereo not drawn) [Compound 320, 2-(4-fluoro-2-(4-(4-(trifluoromethyl)pyridin-3-yl)-4H-1,2,4-triazol-3-yl)-1H-benzo[d]imidazol-5-yl)cyclopropane-1-carbonitrile], the IC50 is ≤ 100 nM.
Consider `NC(=O)C1CC1c1ccc2[nH]c(-c3nncn3-c3cnccc3C(F)(F)F)nc2c1F` (stereo not drawn) [Compound 321, 2-(4-fluoro-2-(4-(4-(trifluoromethyl)pyridin-3-yl)-4H-1,2,4-triazol-3-yl)-1H-benzo[d]imidazol-5-yl)cyclopropane-1-carboxamide], for which the IC50 was ≤ 100 nM.
With `FC(F)(F)c1ccc2[nH]c(-c3nocc3-c3cccc(Cl)c3Cl)nc2c1` [Compound 322, 4-(2,3-dichlorophenyl)-3-(5-(trifluoromethyl)-1H-benzo[d]imidazol-2-yl)isoxazole], the IC50 was 100 to 500 nM.
In the case of `CC(C)(O)c1ccc2[nH]c(-c3nnccc3-c3cnccc3C(F)(F)F)nc2c1` [Compound 323], the IC50 was ≤ 100 nM.
Under `NC1CC1c1ccc2[nH]c(-c3nncn3-c3cnccc3C(F)(F)F)nc2c1F` (stereo not drawn) [Compound 324, 2-(4-fluoro-2-(4-(4-(trifluoromethyl)pyridin-3-yl)-4H-1,2,4-triazol-3-yl)-1H-benzo[d]imidazol-5-yl)cyclopropan-1-amine] stands 100 to 500 nM; under `[O-][S+]1CCN(c2ccccc2)C(c2nc3cc(C(F)(F)F)ccc3[nH]2)C1` (stereo not drawn) [Compound 325, 4-phenyl-3-(5-(trifluoromethyl)-1H-benzo[d]imidazole-2-yl)thiomorpholine 1-oxide], > 1000 nM.
`Fc1cc(N2CCC(F)(F)C2)cc2nc(-c3nncn3-c3cnccc3C(F)(F)F)[nH]c12` [Compound 326, 5-(3,3-difluoropyrrolidin-1-yl)-7-fluoro-2-(4-(4-(trifluoromethyl)pyridin-3-yl)-4H-1,2,4-triazol-3-yl)-1H-benzo[d]imidazole]: the IC50 fell in the range of 100 to 500 nM.
In the case of `Oc1cc(F)c2[nH]c(-c3nncn3-c3cnccc3C(F)(F)F)nc2c1` [Compound 327, 7-fluoro-2-(4-(4-(trifluoromethyl)pyridin-3-yl)-4H-1,2,4-triazol-3-yl)-1H-benzo[d]imidazol-5-ol] it was ≤ 100 nM.
As to `COc1cc(F)c2[nH]c(-c3nncn3-c3cnccc3C(F)(F)F)nc2c1` [Compound 328, 7-fluoro-5-methoxy-2-(4-(4-(trifluoromethyl)pyridin-3-yl)-4H-1,2,4-triazol-3-yl)-1H-benzo[d]imidazole], the IC50 is ≤ 100 nM.
In the case of `Fc1c(CC(F)F)cc(F)c2[nH]c(-c3nncn3-c3cnccc3C(F)(F)F)nc12` [Compound 329, 5-(2,2-difluoroethyl)-4,7-difluoro-2-[4-[4-(trifluoromethyl)-3-pyridyl]-1,2,4-triazol-3-yl]-1H-benzimidazole] it was ≤ 100 nM; in that of `CC1CC1c1cc(F)c2[nH]c(-c3nncn3-c3cnccc3C(F)(F)F)nc2c1` (stereo not drawn) [Compound 330, 7-fluoro-5-(2-methylcyclopropyl)-2-(4-(4-(trifluoromethyl)pyridin-3-yl)-4H-1,2,4-triazol-3-yl)-1H-benzo[d]imidazole], ≤ 100 nM; in that of `Fc1cc(OCC(F)F)cc2nc(-c3nncn3-c3cnccc3C(F)(F)F)[nH]c12` [Compound 331, 5-(2,2-difluoroethoxy)-7-fluoro-2-(4-(4-(trifluoromethyl)pyridin-3-yl)-4H-1,2,4-triazol-3-yl)-1H-benzo[d]imidazole], ≤ 100 nM.
In the case of `Fc1cc2[nH]c(-c3nncn3-c3cnccc3C(F)(F)F)nc2c(F)c1C1CC1` [Compound 332, 5-cyclopropyl-4,6-difluoro-2-(4-(4-(trifluoromethyl)pyridin-3-yl)-4H-1,2,4-triazol-3-yl)-1H-benzo[d]imidazole] it was ≤ 100 nM; in that of `FC(F)(F)c1ccncc1-n1cnnc1-c1nc2c(C3CC3)c(Cl)ccc2[nH]1` [Compound 333, 6-chloro-7-cyclopropyl-2-(4-(4-(trifluoromethyl)pyridin-3-yl)-4H-1,2,4-triazol-3-yl)-1H-benzo[d]imidazole], 500 to 1000 nM.
In the case of `FC(F)(F)c1ccncc1-n1cnnc1-c1nc2c(-c3cccnc3)c(Cl)ccc2[nH]1` [Compound 334, 6-chloro-7-(pyridin-3-yl)-2-(4-(4-(trifluoromethyl)pyridin-3-yl)-4H-1,2,4-triazol-3-yl)-1H-benzo[d]imidazole] it was > 1000 nM; in that of `FC(F)(F)c1ccc2[nH]c(C3=C(c4ccccc4Cl)CSC3)nc2c1` [Compound 335, 2-(4-(2-chlorophenyl)-2,5-dihydrothiophen-3-yl)-5-(trifluoromethyl)-1H-benzo[d]imidazole], 500 to 1000 nM.
Turning to `Fc1cc(C(F)(F)F)cc2nc(-c3nncnc3-c3cnccc3C(F)(F)F)[nH]c12` [Compound 336, 7-fluoro-5-(trifluoromethyl)-2-(5-(4-(trifluoromethyl)pyridin-3-yl)-1,2,4-triazin-6-yl)-1H-benzo[d]imidazole], the IC50 was ≤ 100 nM.
In the case of `O=S1(=O)CC(c2nc3cc(C(F)(F)F)ccc3[nH]2)=C(c2ccccc2Cl)C1` [Compound 337, 3-(2-chlorophenyl)-4-(5-(trifluoromethyl)-1H-benzo[d]imidazol-2-yl)-2,5-dihydrothiophene 1,1-dioxide] it was > 1000 nM; in that of `Fc1cc(C2CC23CC3)cc2nc(-c3nncn3-c3cnccc3C(F)(F)F)[nH]c12` (stereo not drawn) [Compound 338, 7-fluoro-5-spiro[2.2]pentan-2-yl-2-[4-[4-(trifluoromethyl)-3-pyridyl]-1,2,4-triazol-3-yl]-1H-benzimidazole], ≤ 100 nM.
Under `Fc1cc(C2CC2C(F)F)cc2nc(-c3nncn3-c3cnccc3C(F)(F)F)[nH]c12` (stereo not drawn) [Compound 339, 5-(2-(difluoromethyl)cyclopropyl)-7-fluoro-2-(4-(4-(trifluoromethyl)pyridin-3-yl)-4H-1,2,4-triazol-3-yl)-1H-benzo[d]imidazole] stands ≤ 100 nM; under `FC(F)(F)c1ccc2[nH]c(C3CSCC3c3ccccc3Cl)nc2c1` (stereo not drawn) [Compound 340, 2-(4-(2-chlorophenyl)tetrahydrothiophen-3-yl)-5-(trifluoromethyl)-1H-benzo[d]imidazole], 100 to 500 nM; under `CN(c1ccc2[nH]c(-c3nncn3-c3cnccc3C(F)(F)F)nc2c1)S(C)(=O)=O` [Compound 341, N-methyl-N-[2-[4-[4-(trifluoromethyl)-3-pyridyl]-1,2,4-triazol-3-yl]-1H-benzimidazol-5-yl]methanesulfonamide], 100 to 500 nM.
Under `FC(F)(F)c1ccncc1-n1cnnc1-c1nc2cc(N3C4COCC3C4)ccc2[nH]1` [Compound 342, 6-[2-[4-[4-(trifluoromethyl)-3-pyridyl]-1,2,4-triazol-3-yl]-1H-benzimidazol-5-yl]-3-oxa-6-azabicyclo[3.1.1]heptane] stands 500 to 1000 nM; under `CC(C)(O)c1ccc2[nH]c(-c3nnccc3-c3cnccc3C(F)(F)F)nc2c1F` [Compound 343, 2-(4-Fluoro-2-(4-(4-(trifluoromethyl)pyridin-3-yl)pyridazin-3-yl)-1H-benzo[d]imidazol-5-yl)propan-2-ol], ≤ 100 nM.
Consider `FC(F)(F)c1ccc2[nH]c(N3CCC3c3ccccc3)nc2c1` (stereo not drawn) [Compound 344, 2-(2-phenylazetidin-1-yl)-5-(trifluoromethyl)-1H-benzo[d]imidazole], for which the IC50 was in the range of 500 to 1000 nM.
Under `CS(=O)(=O)c1c(-c2nncn2-c2cccc(F)c2Cl)[nH]c2ccc(C(F)(F)F)cc12` [Compound 346, 2-[4-(2-chloro-3-fluorophenyl)-1,2,4-triazol-3-yl]-3-methanesulfonyl-5-(trifluoromethyl)-1H-indole] stands ≤ 100 nM.
